Assay results taken from patent US20230329282A1, “Application of 1-Deoxynojirimycin in Feed for Improving Nutritional Value and Sensory Effect of Rabbit Meat Products” (priority 2023, published 2023).
Marks after values point to notes of the source that are not given here.

Experiments:
[1] = system: New Zealand white rabbits; test: Nutritional ingredients of muscle (moisture, crude protein, ether extract); type: in vivo; settings: 28 d
Description: (§1) The single-factor completely randomized test design is adopted. 36 45-day-old healthy New Zealand white rabbits (male) with the average weight of (1.05±0.04) kg are selected and randomly divided into 3 groups, and each group has 12 replicates with 1 rabbit per replicate. A control group is fed with a basal diet, an L-DNJ group is fed with the basal diet+0.14 g/kg DNJ, and an H-DNJ group is fed with the basal diet+0.28 g/kg DNJ. The diet is uniformly mixed to be prepared into cylindrical particles with the diameter of 6 mm and the length of 1 cm. The preliminary trial period is 14 d, and the trial period is 28 d.
The rabbits are deprived of food (but not water) on the night of the end of the experiment, and after weighing in the next morning, 8 rabbits with similar weight are selected from each group and slaughtered. The longissimus dorsi muscles of the rabbits are collected, the pH values of the front, middle and back parts of the longissimus dorsi muscle are measured with a pH meter (Bante221, Shanghai Bante Instrument Co., Ltd.) having the function of automatic temperature compensation and then measured again after standing at room temperature for 24 h, and the pH decreased values of the muscle within 24 h are calculated. The pH value is the average value of the three readings. The meat color (L*, α*, b*) is measured with a TC-PIIG automatic color difference meter (Beijing Aoyike Photoelectric Instrument Co., Ltd.) on the muscle surface. The detection light source is D65 according to CIE laboratory standards, and the measurement area is 8 mm in diameter. The average value is obtained by making three measurements at each detection point.
The contents of moisture, crude protein and ether extract in the muscle are measured according to the method proposed by Zhang Liying (Zhang Liying. Feed analysis and feed quality inspection technology [M]. 4th Ed. Beijing: China Agricultural University Press, 2016).

[2] = system: New Zealand white rabbits; test: Antioxidant indexes of rabbit meat (T-AOC, SOD, GSH-Px, MDA kits); type: in vivo; settings: 28 d, muscle homogenate
Description: as §1
About 5 g of muscular tissue is rinsed in 0-4° C. precooled normal saline to remove blood, dried with filter paper, and then weighed. The muscle tissue and 0-4° C. precooled homogenate buffer are thoroughly mixed and homogenized in an ice water bath at a […] to prepare muscle tissue homogenate with the mass concentration of 10%. The homogenate buffer contains 0.01 mol/L sucrose, 0.14 mol/L NaCl, 0.01 mol/L Tris-HCl and 0.0001 mol/L Na2EDTA, with the pH value of 7.4. The total protein content and the malondialdehyde (MDA) content of the tissue suspension is detected with a kit by a colorimetric method. Before the activities of total antioxidant capacity (T-AOC) enzyme, superoxide dismutase (SOD) and glutathione peroxidase (GSH-Px) are measured, the homogenate suspension is centrifuged at 3000 r/min for 15 min, the superneant is taken, and the activities of the enzymes are measured with relevant kits. All the kits are from Nanjing Jiancheng Bioengineering Institute, and the operation method is shown in the instructions of kits.

[3] = system: New Zealand white rabbits; test: Growth performance (ADFI, ADG, FCR); type: in vivo; settings: 28 d trial
Description: as §1
In the morning of the first day of the trial period and the second day after the trial, the experimental rabbits are weighed once on an empty stomach, and the average daily gain (ADG) of each rabbit is calculated. Leftovers are collected and weighed before feeding, and the average daily feed intake (ADFI) of each rabbit is calculated. The ratio of the average daily feed intake to the average daily gain is the feed conversion rate (FCR). The calculation formula is as follows: • ADG=(final weight−initial weight)/test days; • ADFI=total feed intake/test days; • FCR=ADFFADG.

[4] = system: New Zealand white rabbits; test: Apparent digestibility of nutrients, total collection method; type: in vivo; settings: feces collected 3 d from day 14
Description: as §1
On the 14th day of the test, 8 experimental rabbits with similar weight are randomly selected from each group and transferred to metabolism cages for digestion and metabolism tests. The digestion and metabolism tests are conducted by the total collection method. All fecal samples of the experimental rabbits are collected for 3 consecutive days, and the contents of nutrients in the diet and fecal samples are measured according to the method in the book written by Zhang Liying. The calculation formula is: apparent digestibility of a nutrient (%)=(content of the nutrient in diet−content of the nutrient in feces)/content of the nutrient in diet×100.

[5] = system: New Zealand white rabbits; settings: cited from earlier work
[6] = H-DNJ: basal diet+0.28 g/kg DNJ
[7] = L-DNJ: basal diet+0.14 g/kg DNJ
[8] = Zhong Jingbo et al. 2021, higher additive amount
[9] = high-concentration mulberry leaf DNJ (0.4 g/kg and 2 g/kg), Zhong Jingbo et al., Xie Hui et al.

## OC[C@H]1NC[C@H](O)[C@@H](O)[C@@H]1O [DNJ, 1-deoxynojirimycin]
[1]; [6]
  Nutritional ingredient of muscle: Crude protein (CP): 22.18
  Nutritional ingredient of muscle: Ether extract (EE): 0.60^c
  Nutritional ingredient of muscle: Moisture: 75.20
[1]; [7]
  Nutritional ingredient of muscle: Crude protein (CP): 22.09
  Nutritional ingredient of muscle: Ether extract (EE): 2.50^b
  Nutritional ingredient of muscle: Moisture: 75.93
[2]; [6]
  GSH-Px of rabbit meat: 7.88ª U/mg prot
  MDA of rabbit meat: 0.45 nmol/mg prot
  SOD of rabbit meat: 25.91 U/mg prot
  T-AOC of rabbit meat: 0.82ª U/mg prot
[2]; [7]
  GSH-Px of rabbit meat: 6.36^b U/mg prot
  MDA of rabbit meat: 0.41 nmol/mg prot
  SOD of rabbit meat: 25.01 U/mg prot
  T-AOC of rabbit meat: 0.78^ab U/mg prot
[3]; [6]
  Average daily feed intake (ADFI): 140.46
  Average daily gain (ADG): 32.66 g/day
  Feed conversion rate (FCR): 0.24 g/g
[3]; [7]
  Average daily feed intake (ADFI): 145.33
  Average daily gain (ADG): 36.18 g/day
  Feed conversion rate (FCR): 0.25 g/g
[4]; [6]
  Apparent digestibility of Acid detergent fiber (ADF): 14.88%
  Apparent digestibility of Crude ash: 42.23%
  Apparent digestibility of Crude fiber (CF): 14.56%
  Apparent digestibility of Crude protein (CP): 76.25ª %
  Apparent digestibility of Dry matter (DM): 60.79^b %
  Apparent digestibility of Ether extract (EE): 78.35^b %
  Apparent digestibility of Neutral detergent fiber: 20.68%
[4]; [7]
  Apparent digestibility of Acid detergent fiber (ADF): 12.34%
  Apparent digestibility of Crude ash: 43.44%
  Apparent digestibility of Crude fiber (CF): 13.54%
  Apparent digestibility of Crude protein (CP): 75.17^ab %
  Apparent digestibility of Dry matter (DM): 61.35^ab %
  Apparent digestibility of Ether extract (EE): 79.84^ab %
  Apparent digestibility of Neutral detergent fiber: 21.02%
[5]; [8]
  brightness L* of rabbit meat: increase
  redness α* of rabbit meat: no effect
[5]; [9]
  activity of the duodenal amylase: decrease
  digestibility of dry matter and ether extract in diet: decrease
  weight gain of animals: slow weight gain
